Laboratory results published in PubChem BioAssay AID328 (DTP/NCI, 2004).
Several values for one entry are separate records, joined by “and”; a condition that tells them apart may be missing. Equal values may be shown once. Inconclusive results and toxic doses are left out. How the source made its calls: active means survival T/C of 150% or more; inactive means T/C below 125% in these data.

Test system: BDF1 mice, P388 leukemia ip, median survival T/C
Test: NCI In Vivo Anticancer Drug Screen. Data for tumor model P388 Leukemia (intraperitoneal) in B6D2F1 (BDF1) mice
Conditions: endpoint: median survival time, higher = longer survival
In short: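 Each value expresses how treatment altered survival: treated-mouse outcome over vehicle-mouse outcome, both groups bearing the transplanted tumour.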

[1] = dose: 100.0 mg/kg/injection, schedule: Q01DX009 (ip), vehicle: saline with Tween-80
[2] = dose: 100.0 mg/kg/injection, schedule: Q04DX003 (ip), vehicle: saline with Tween-80
[3] = dose: 200.0 mg/kg/injection, schedule: Q01DX009 (ip), vehicle: saline with Tween-80
[4] = dose: 200.0 mg/kg/injection, schedule: Q04DX003 (ip), vehicle: saline with Tween-80

Measured: T/C

C=CC=O
inactive: dose: 0.45 mg/kg/injection, schedule: Q01DX009 (ip), vehicle: saline 100 % of control | dose: 0.45 mg/kg/injection, schedule: Q04DX003 (ip), vehicle: saline 109 % of control | dose: 0.9 mg/kg/injection, schedule: Q01DX009 (ip), vehicle: saline 108 % of control | dose: 0.9 mg/kg/injection, schedule: Q04DX003 (ip), vehicle: saline 100 % of control | dose: 1.8 mg/kg/injection, schedule: Q01DX009 (ip), vehicle: saline 112 % of control | dose: 1.8 mg/kg/injection, schedule: Q04DX003 (ip), vehicle: saline 109 % of control | dose: 6.25 mg/kg/injection, schedule: Q01DX009 (ip), vehicle: saline 109 % of control | dose: 6.25 mg/kg/injection, schedule: Q04DX003 (ip), vehicle: saline 104 % of control | dose: 12.5 mg/kg/injection, schedule: Q04DX003 (ip), vehicle: saline 100 % of control

CCC12C=CCN3CCC4(c5c(C(c6ccc(OC)cc6)c6c(CN(C)C)c7ccccc7n6C)cc(OC)cc5N(C)C4C(O)(C(=O)OC)C1OC(C)=O)C32 (stereo unspecified)
inactive: dose: 0.3 mg/kg/injection, schedule: Q01DX009 (ip), vehicle: saline 93 % of control | dose: 0.6 mg/kg/injection, schedule: Q01DX009 (ip), vehicle: saline 98 % of control | dose: 4.0 mg/kg/injection, schedule: Q01DX009 (ip), vehicle: saline 97 % of control | dose: 8.0 mg/kg/injection, schedule: Q01DX009 (ip), vehicle: saline 96 % of control | dose: 15.0 mg/kg/injection, schedule: Q01DX009 (ip), vehicle: saline 107 % of control | dose: 16.0 mg/kg/injection, schedule: Q01DX009 (ip), vehicle: saline 95 % of control | dose: 60.0 mg/kg/injection, schedule: Q01DX009 (ip), vehicle: saline 123 % of control

CC1=CC(=C2C=CC(=[N+](C)C)C=C2)C=C(C)S1
inactive: dose: 3.12 mg/kg/injection, schedule: Q01DX009 (ip), vehicle: distilled water + Tween-80 + alcohol 113 % of control | dose: 6.25 mg/kg/injection, schedule: Q01DX009 (ip), vehicle: distilled water + Tween-80 + alcohol 109 % of control | dose: 12.5 mg/kg/injection, schedule: Q01DX009 (ip), vehicle: distilled water + Tween-80 + alcohol 114 % of control | dose: 25.0 mg/kg/injection, schedule: Q01DX009 (ip), vehicle: distilled water + Tween-80 + alcohol 97 % of control

O=NN(CCBr)C(=O)NC1CCCCC1
inactive: dose: 1.5 mg/kg/injection, schedule: Q01DX009 (ip), vehicle: saline with Tween-80 109 % of control | dose: 3.0 mg/kg/injection, schedule: Q01DX009 (ip), vehicle: saline with Tween-80 109 % of control | dose: 6.0 mg/kg/injection, schedule: Q01DX009 (ip), vehicle: saline with Tween-80 113 % of control | dose: 100.0 mg/kg/injection, schedule: Q01DX009 (ip), vehicle: gum acacia 103 % of control | [1] 122 % of control | dose: 100.0 mg/kg/injection, schedule: Q04DX003 (ip), vehicle: gum acacia 113 % of control | [2] 109 % of control | dose: 133.0 mg/kg/injection, schedule: Q01DX009 (ip), vehicle: gum acacia 115 % of control | dose: 150.0 mg/kg/injection, schedule: Q01DX009 (ip), vehicle: saline with Tween-80 95 % of control | [3] 118 % of control and 122 % of control | dose: 200.0 mg/kg/injection, schedule: Q04DX003 (ip), vehicle: gum acacia 104 % of control | [4] 109 % of control | dose: 300.0 mg/kg/injection, schedule: Q01DX009 (ip), vehicle: gum acacia 100 % of control | dose: 400.0 mg/kg/injection, schedule: Q01DX009 (ip), vehicle: gum acacia 103 % of control | dose: 400.0 mg/kg/injection, schedule: Q04DX003 (ip), vehicle: gum acacia 91 % of control

CC(=O)N1C(=O)N(Cl)C(=O)C1(c1ccc(Cl)cc1)c1ccc(Cl)cc1
inactive: dose: 60.0 mg/kg/injection, schedule: Q01DX009 (ip), vehicle: saline with Tween-80 116 % of control | [1] 91 % of control | [2] 113 % of control | [3] 113 % of control | [4] 109 % of control | dose: 400.0 mg/kg/injection, schedule: Q04DX003 (ip), vehicle: saline with Tween-80 122 % of control
